# Assay results published in patent publication US20070161547A1, “Modulation of survivin expression” (priority 2003, published 2007).
# Where two headings read alike, the source gives them in different places. d = 2'-deoxy (DNA)
# Columns and labels:
# human survivin mRNA = test: IC50 of dsRNA for survivin mRNA, dose response by quantitative RT-PCR ("D"); format: cell-based
# Method: Representative parameters that can be studied include, for example, translation of survivin mRNAs or survivin protein synthesis; effect on surrogate markers; or any other parameter that is indicative of potential dsRNA therapeutic effectiveness that can be conveniently measured in vitro.
# (§1) For western blot analysis, cells are plated in 10 cm tissue culture dishes (Falcon, #3003) at a density of 7.5×10^5 cells/dish. For RT-PCR analysis, 96-well plates (Corning Incorporated, #3596) are plated with 1×10^4 cells/well. Lipofectin (GIBCO/Invitrogen) transfection reagent is used at a concentration of 3 ul/ml OPTIMEM reduced serum medium (Gibco/Invitrogen)/100 nM siRNA duplex. Lipofectin reagent is incubated with OPTIMEM medium for 30 minutes prior to the addition of siRNA. The desired amount of siRNA is added and mixed. Further 1:1 dilutions are performed in OPTIMEM. Cells are washed twice with 1× phosphate buffered saline and then treated with the siRNA/Lipofectin mixture in OPTIMEM. After a 4 hr incubation period, OPTIMEM medium is replaced with complete growth medium. Cells are harvested after additional 16-20 hrs for Western blot or RT-PCR analysis.
# Total RNA is isolated using RNeasy® 96 kit according to recommended protocol (Qiagen). Briefly, cells are washed with 200 ul PBS after removal of growth medium. Following washing, 100 μl buffer RLT is added, plate is shaken vigorously for about 20 seconds. To each well 100 μl 70% ethanol are added and mixed by pipetting up and down three times. Samples are then applied into the wells of the RNeasy 96 plate placed in the QIAvac top base of the QIAvac 96 manifold, which is attached to a vacuum source. Vacuum is applied for 30 seconds or until transfer is complete. To each well 80 μl of DNase I incubation mix (20 mM Tris-HCl, pH 8.4, 2 mM MgCl2, 50 mM KCl and 225 Units/ml DNase I from Invitrogen) is added and incubated at room temperature for 30 minutes. Buffer RW1 (1 ml/well) is added and the vacuum is applied for 30 seconds. Buffer RPE (1 ml/well) is added to each well and vacuum is applied for 30 seconds. Washing steps with buffer RW1 and RPE1 are repeated once more. The plate is then removed from the manifold and blotted dry on paper towels. The plate is placed back in the QIAvac manifold and the vacuum is applied for 10 minutes. To elute RNA 30 μl of RNase-free water is added directly onto the membrane of each well, incubated for 1 minutes and vacuum is applied for 30 seconds. In order to maximize the recovery of total RNA the elution step is repeated with additional 30 μl/well RNase-free water.
# Quantitation of survivin and GAPDH mRNA levels is determined by real-time quantitative RT-PCR using the ABI PRISM® 7900 Sequence Detection System (Applied Biosystems). RT-PCR reactions are carried out by adding 15 ul of TaqMan One Step PCR Master Mix (Applied Biosystems, #4309169) reagents (containing 100 nM each of forward primer and reverse primer, and 200 nM probe) to 96-well plates with 10 μl total RNA. For human survivin, the forward PCR primer is: 5′[…]3′ (SEQ ID NO: 186), and the reverse primer is: 5′[…]3′ (SEQ ID NO: 187). The survivin TaqMan® probe used is 5′(FAM)[…]3′ (SEQ ID NO: 188) (Biosearch Technologies, Inc.). This primer-probe set, designed to SEQ ID No 14 was used for all experiments in Examples 15 to the end. For human GAPDH, TaqMan GAPDH Control Reagent Kit is used (Applied Biosystems, #402869). The percentage inhibition for each samples are calculated by comparing the survivin/GAPDH mRNA ratio for the sample to survivin/GAPDH mRNA ratio for the untreated control. The IC50 is derived from the non-linear regression analysis of the percentage inhibition data using GraphPad Prism software (GraphPad Software).
# The constructs tested comprise the antisense strand in the 5′-3′ orientation, and the sense strand in the 5′ to 3′ orientation, In Table 15, “D” is dose response (mRNA levels) and “W” is Western blot. […]
# [1] = Stability of siRNA constructs in mouse plasma, capillary gel electrophoresis; format: in vitro ADME; details: for Stability (t ½ in hours): Table 17, 25% mouse plasma, 37° C., pseudo first-order half-life of intact siRNA duplex
# Method: Intact duplex RNA was analyzed from diluted mouse-plasma using an extraction and capillary electrophoresis method similar to those previously described (Leeds, J. M., et al., 1996, Anal. Biochem., 235, 36-43; Geary, R. S., et al., 1999, Anal. Biochem., 274, 241-248. Heparin-treated mouse plasma, from 3-6 month old female Balb/c mice (Charles River Labs) was thawed from −80° C. and diluted to 25% (v/v) with phosphate buffered saline (140 mM NaCl, 3 mM KCl, 2 mM potassium phosphate, 10 mM sodium phosphate). Approximately 10 nmol of pre-annealed siRNA, at a concentration of 100 μM, was added to the 25% plasma and incubated at 37° C. for 0, 15, 30, 45, 60, 120, 180, 240, 360, and 420 minutes. Aliquots were removed at the indicated time, treated with EDTA to a final concentration of 2 mM, and placed on ice at 0° C. until analyzed by capillary gel electrophoresis (Beckman P/ACE MDQ-UV with eCap DNA Capillary tube). The area of the siRNA duplex peak was measured and used to calculate the percent of intact siRNA remaining. Adenosine triphosphate (ATP) was added at a concentration of 2.5 mM to each injection as an internal calibration standard. A zero time point was taken by diluting siRNA in phosphate buffered saline followed by capillary electrophoresis. Percent intact siRNA was plotted against time, allowing the calculation of a pseudo first-order half-life.
# survivin protein = test: IC50 of dsRNA for survivin protein, quantitative Western blot ("W"); format: cell-based, human; details: for IC50: W (Western blot), HeLa cells
# Method: Western blot analysis (immunoblot analysis) is carried out using standard methods. Cells are harvested 16-20 hours after oligonucleotide treatment, washed once with PBS, suspended in Laemmli buffer (100 μl/well), boiled for 5 minutes and loaded on a 16% SDS-PAGE gel. Gels are run for 1.5 hours at 150 V, and transferred to membrane for western blotting. Appropriate primary antibody directed to survivin is used, with a radiolabelled or fluorescently labeled secondary antibody directed against the primary antibody species. Bands are visualized using a PHOSPHORIMAGER™ (Molecular Dynamics, Sunnyvale, Calif.).
# as §1
# At the end of the incubation period culture medium is removed and cells are washed twice with PBS. Cells are lysed in RIPA buffer (20 mM Tris-HCl, pH 7.4, 5 mM EDTA, 50 mM NaCl, 10 mM Sodium Pyrophosphate, 50 mM Sodium Fluoride, and 1% Nonidet P40) plus Complete™ Mini protease inhibitor tablets (Roche, #1836153) and 1 mM Sodium orthovanadate (Sigma) by directly adding buffer to the plate. Lysates are collected by scrapping, transferred to microfuge tubes and cleared from the cellular debris by centrifugation at 14,000 rpm for 30 minutes at 4° C. Protein concentrations are determined using BCA protein assay yeagents (Pierce). Total cellular protein is subjected to SDS-PAGE and transferred onto Immobilon-P membranes (Millipore, #IPVHO91). Membranes are probed with primary antibodies to survivin (R&D Systems, #AF886) and to β-Actin (Sigma, #A5441). Horseradish peroxidase linked Anti-rabbit Ig, and anti-mouse Ig, antibodies (Pharmacia) are used as secondary antibodies. Antigen-antibody complexes are visualized by incubation of membrane in SuperSigmal West Pico chemiluminescence reagents (Pierce) for 5 minutes followed by capturing of the chemiluminescence using Fluor-S imager (Biorad) equipped with the cool CCD camera. The protein bands of interest for each sample are quantified using Quantity One software (Biorad). The percentage inhibition for each samples are calculated by comparing the survivin/Actin protein ratio for the sample to survivin/Actin protein ratio for the untreated control. The IC50 is derived from the non-linear regression analysis of the percentage inhibition data using GraphPad Prism software (GraphPad Software).
# The constructs tested comprise the antisense strand in the 5′-3′ orientation, and the sense strand in the 5′ to 3′ orientation, In Table 15, “D” is dose response (mRNA levels) and “W” is Western blot. All internucleoside linkages are phosphodiester unless otherwise noted by a lowercase “s” indicating a phosphorothioate linkage.
# [2] = Table 16, cell line not given, read-out: IC50 (nM) mRNA, dsRNA to human survivin
substance,measurement,setting,value
"ISIS 355713_355714: blunt-ended siRNA duplex, alternating 2'-O-methyl/2'-fluoro in opposing register: antisense 355713, sense 355714 (antisense UUUGAAAAUGUUGAUCUCC; sense GGAGAUCAACAUUUUCAAA; chemistry not fully specified)",IC50,human survivin mRNA; [2],0.06 nM
same,Stability (t ½ in hours),[1],>4 h
same,stability of construct in serum (mouse plasma),[1]; in words,remains relatively unchanged and is stable in serum
"Compound U17: canonical siRNA targeted to human survivin, two deoxythymidines at 3' end of each strand (Table 14) (antisense GGAGAUCAACAUUUUCAAA; sense UUUGAAAAUGUUGAUCUCC; RNA, 3' dTdT, backbone not given here)",activity in quantitative RT-PCR analysis,human survivin mRNA; in words,potent activity
same,activity in Western blot analysis,survivin protein; in words,potent activity
339049_339079 (antisense AGCACAGUUGAAACAUCUAA; sense UUAGAUGUUUCAACUGUGCU; siRNA; unmodified RNA),IC50,survivin protein,6.12 nM
339064_339094 (antisense UAAUCACACAGCAGUGGCAA; sense UUGCCACUGCUGUGUGAUUA; siRNA; unmodified RNA),IC50,survivin protein,5.45 nM
339057_339087 (antisense CAGGGACUCUGUCUCCAUUC; sense GAAUGGAGACAGAGUCCCUG; siRNA; unmodified RNA),IC50,survivin protein,≥ 100 nM
"ISIS 353537_343868: dsRNA duplex: antisense 353537 (4'-thio), sense 343868 (unmodified) (antisense UUUGAAAAUGUUGAUCUCC; sense GGAGAUCAACAUUUUCAAA; 4'-thio antisense, chemistry not fully specified)",IC50,human survivin mRNA; [2],0.18 nM
same,Stability (t ½ in hours),[1],3 h
339051_339081 (antisense UCCCUCACUUCUCACCUGGU; sense ACCAGGUGAGAAGUGAGGGA; siRNA; unmodified RNA),IC50,survivin protein,≥ 100 nM
339055_339085 (antisense AGUCCACACUCAGGACUGUG; sense CACAGUCCUGAGUGUGGACU; siRNA; unmodified RNA),IC50,survivin protein,≥ 100 nM
339062_339092 (antisense UCCACCUGAAGUUCACCCCG; sense CGGGGUGAACUUCAGGUGGA; siRNA; unmodified RNA),IC50,"human survivin mRNA; D (dose response, mRNA levels), HeLa cells, read-out: IC50",1.8 nM
same,IC50,survivin protein,65.2 nM
339063_339093 (antisense AAGGAGUAUCUGCCAGACGC; sense GCGUCUGGCAGAUACUCCUU; siRNA; unmodified RNA),IC50,survivin protein,6.2 nM
